Results: patent US6339045B1, “N-(unsubstituted or substituted)-4-substituted-6-(unsubstituted or substituted)phenoxy-2-pyridinecarboxamides or thiocarboxamides, processes for producing the same, and herbicides” (Kureha Kagaku Kogyo Kabushiki Kaisha, priority 1995, dated 2002)

Experiments:
Test in all cases: Herbicidal effect by foliage and soil treatment
Type in all cases: in vivo
Details in all cases: 10 g ai/10a, evaluated after 14 days
[1] = test system: redroot pigweed (Amaranthus retroflexus)
In short: (§1)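 Post-emergence spray, cotyledon to bifoliate stage; Tween 20/water vehicle, fixed dose per area; greenhouse 19–25 °C; 14 d; visual growth rating vs untreated.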

[2] = test system: black nightshade (Solanum nigrum)
In short: as §1

[3] = test system: sicklepod (Cassia obtusifolia)
In short: as §1

[4] = test system: velvetleaf (Abutilon theophrasti)
In short: as §1

[5] = test system: wild chamomile (Matricaria chamomilla)
In short: as §1

[6] = test system: field bindweed (Convolvulus arvensis)
In short: as §1

[7] = test system: kediock (Sinapis arvensis)
In short: as §1

[8] = test system: cleavers (Galium aparine)
In short: as §1

[9] = test system: ivyleafspeedwell (Veronica hederaefolia)
In short: as §1

[10] = test system: common blackjack (Bidens pilosa)
In short: as §1

[11] = test system: common chickweed (Stellaria media)
In short: as §1

| SMILES | herbicidal activity rating, AR (Amaranthus retroflexus) [1] | herbicidal activity rating, SN (Solanum nigrum) [2] | herbicidal activity rating, CO (Cassia obtusifolia) [3] | herbicidal activity rating, AT (Abutilon theophrasti) [4] | herbicidal activity rating, MC (Matricaria chamomilla) [5] | herbicidal activity rating, CA (Convolvulus arvensis) [6] | herbicidal activity rating, SA (Sinapis arvensis) [7] | herbicidal activity rating, GA (Galium aparine) [8] | herbicidal activity rating, VH (Veronica hederaefolia) [9] | herbicidal activity rating, BP (Bidens pilosa) [10] | herbicidal activity rating, SM (Stellaria media) [11] |
| --- | --- | --- | --- | --- | --- | --- | --- | --- | --- | --- | --- |
| COc1cc(Oc2cccc(C(F)(F)F)c2)nc(C(=O)NCCCl)c1 [Compound I-35] | 5 (percentage of weeds killed was not less than 80%) | 5 (percentage of weeds killed was not less than 80%) | 5 (percentage of weeds killed was not less than 80%) | 5 (percentage of weeds killed was not less than 80%) | 5 (percentage of weeds killed was not less than 80%) | 5 (percentage of weeds killed was not less than 80%) | 5 (percentage of weeds killed was not less than 80%) | 5 (percentage of weeds killed was not less than 80%) | 5 (percentage of weeds killed was not less than 80%) | 5 (percentage of weeds killed was not less than 80%) | 5 (percentage of weeds killed was not less than 80%) |
| COc1cc(Oc2cccc(C(F)(F)F)c2)nc(C(=O)NCCO)c1 [Compound I-89] | 5 (percentage of weeds killed was not less than 80%) | 5 (percentage of weeds killed was not less than 80%) | 5 (percentage of weeds killed was not less than 80%) | 4 (percentage of weeds killed was not less than 60% and less than 80%) | 3 (percentage of weeds killed was not less than 40% and less than 60%) | 4 (percentage of weeds killed was not less than 60% and less than 80%) | 5 (percentage of weeds killed was not less than 80%) | 5 (percentage of weeds killed was not less than 80%) | 5 (percentage of weeds killed was not less than 80%) | 5 (percentage of weeds killed was not less than 80%) | 5 (percentage of weeds killed was not less than 80%) |
| COc1cc(Oc2cccc(C(F)(F)F)c2)nc(C(=O)Nc2ccc(Cl)cc2)c1 [Compound I-2] | 5 (percentage of weeds killed was not less than 80%) | 5 (percentage of weeds killed was not less than 80%) | 5 (percentage of weeds killed was not less than 80%) | 4 (percentage of weeds killed was not less than 60% and less than 80%) | 3 (percentage of weeds killed was not less than 40% and less than 60%) | 5 (percentage of weeds killed was not less than 80%) | 5 (percentage of weeds killed was not less than 80%) | 5 (percentage of weeds killed was not less than 80%) | 5 (percentage of weeds killed was not less than 80%) | 5 (percentage of weeds killed was not less than 80%) | 4 (percentage of weeds killed was not less than 60% and less than 80%) |
| COc1cc(Oc2cccc(C(F)(F)F)c2)nc(C(=O)NCCOCCF)c1 [Compound I-90] | 5 (percentage of weeds killed was not less than 80%) | 5 (percentage of weeds killed was not less than 80%) | 5 (percentage of weeds killed was not less than 80%) | 3 (percentage of weeds killed was not less than 40% and less than 60%) | 2 (percentage of weeds killed was not less than 20% and less than 40%) | 4 (percentage of weeds killed was not less than 60% and less than 80%) | 5 (percentage of weeds killed was not less than 80%) | 5 (percentage of weeds killed was not less than 80%) | 5 (percentage of weeds killed was not less than 80%) | 5 (percentage of weeds killed was not less than 80%) | 5 (percentage of weeds killed was not less than 80%) |
| COc1cc(Oc2cccc(C(F)(F)F)c2)nc(C(=O)Nc2ccccc2)c1 [Compound I-1, N-phenyl-4-methoxy-6-{3-(trifluoromethyl)phenoxy}-2-pyridine carboxamide] | 5 (percentage of weeds killed was not less than 80%) | 5 (percentage of weeds killed was not less than 80%) | 5 (percentage of weeds killed was not less than 80%) | 4 (percentage of weeds killed was not less than 60% and less than 80%) | 4 (percentage of weeds killed was not less than 60% and less than 80%) | 4 (percentage of weeds killed was not less than 60% and less than 80%) | 5 (percentage of weeds killed was not less than 80%) | 5 (percentage of weeds killed was not less than 80%) | 5 (percentage of weeds killed was not less than 80%) | 5 (percentage of weeds killed was not less than 80%) | 4 (percentage of weeds killed was not less than 60% and less than 80%) |
| CCN(C)C(=O)c1cc(OC)cc(Oc2cccc(C(F)(F)F)c2)n1 [Compound I-201] | 5 (percentage of weeds killed was not less than 80%) | 5 (percentage of weeds killed was not less than 80%) | 5 (percentage of weeds killed was not less than 80%) | 4 (percentage of weeds killed was not less than 60% and less than 80%) | 2 (percentage of weeds killed was not less than 20% and less than 40%) | 5 (percentage of weeds killed was not less than 80%) | 5 (percentage of weeds killed was not less than 80%) | 5 (percentage of weeds killed was not less than 80%) | 5 (percentage of weeds killed was not less than 80%) | 2 (percentage of weeds killed was not less than 20% and less than 40%) | 5 (percentage of weeds killed was not less than 80%) |
| COc1cc(Oc2cccc(C(F)(F)F)c2)nc(C(=O)NCCCSC)c1 [Compound I-76] | 5 (percentage of weeds killed was not less than 80%) | 5 (percentage of weeds killed was not less than 80%) | 5 (percentage of weeds killed was not less than 80%) | 3 (percentage of weeds killed was not less than 40% and less than 60%) | 5 (percentage of weeds killed was not less than 80%) | 3 (percentage of weeds killed was not less than 40% and less than 60%) | 5 (percentage of weeds killed was not less than 80%) | 5 (percentage of weeds killed was not less than 80%) | 5 (percentage of weeds killed was not less than 80%) | 4 (percentage of weeds killed was not less than 60% and less than 80%) | 4 (percentage of weeds killed was not less than 60% and less than 80%) |
| CCCNC(=O)c1cc(OC)cc(Oc2cccc(C(F)(F)F)c2)n1 [Compound I-33, N-(n-propyl)-4-methoxy-6-{3-(trifluoromethyl)phenoxy}-2-pyridine carboxamide] | 5 (percentage of weeds killed was not less than 80%) | 5 (percentage of weeds killed was not less than 80%) | 5 (percentage of weeds killed was not less than 80%) | 5 (percentage of weeds killed was not less than 80%) | 5 (percentage of weeds killed was not less than 80%) | 4 (percentage of weeds killed was not less than 60% and less than 80%) | 5 (percentage of weeds killed was not less than 80%) | 5 (percentage of weeds killed was not less than 80%) | 5 (percentage of weeds killed was not less than 80%) | 5 (percentage of weeds killed was not less than 80%) | 5 (percentage of weeds killed was not less than 80%) |
